Where two headings read alike, the source gives them in different places.
Legend:
[1] = target: T1, HIV-1 RT-associated RDDP activity (Human immunodeficiency virus type 1 group M subtype B, UniProt P04585); experiment: RDDP assay (Enz-Check Reverse Transcriptase Assay Kit); type: biochemical; details: for IC50: concentration required to inhibit the HIV-1 RDDP activity by 50%
T1 construct: His-tagged p66/p51 HIV-1 RT; His tag; made in house; host or cells: Escherichia coli strain M15
Method: (§1) His-tagged p66/p51 HIV-1 RT was expressed in Escherichia coli strain M15 as previously described. Full-length IN and LEDGF proteins were expressed in E. coli BL21 (DE3).
The HIV-1 RT-associated RDDP activity was measured using the Enz-Check Reverse Transcriptase Assay Kit (Life technologies, Carls- bad, California, USA), as previously described. The Yonetani-Theorell analysis was performed as previously reported.

TZM-bl cells = experiment: Cell toxicity, metabolic XTT test; type: cell-based, human
Method: (§2) The human TZM-bl indicator cell line was obtained from the American Type Culture Collection (Manassas, VA) and maintained at 37°C and 5% CO2 in Dulbecco's modified Eagle's medium (DMEM) containing 10% fetal bovine serum, 50 μg/mLpenicillin, and 50 μg/mL streptomycin. The HIV-1 virus NL(AD8) was titrated as follows: serial 5-fold dilutions of the virus were made in quadruplicate wells in 96-well culture plates, in a total volume of 100 μL of growth medium, for a total of 8 dilution steps. Freshly trypsinized cells (20,000 cells in 100 μL of growth medium containing 75 μg/mL DEAE-dextran) were added to each well, and the plates were incubated at 37°C in a humidified 5% CO2-95% air environment. After 48 h of incubation, the medium was removed and viral infection was quantified using a β-galactosidase (CPRG) assay (Roche). Twenty thousand TZM-bl cells/well were seeded in 96-well plates in complete DMEM supplemented with 30 μg/mL DEAE-dextran (Sigma-Aldrich). Three hundred times the 50% tissue culture infective dose (TCID50)/mL of HIV AD8 strain and seven serial dilutions (range, 40.000 nM to 625 nM) of each compound were added to the cells, as previously described. Vehicle (0.1% dimethyl sulfoxide [DMSO])-treated cells served as a negative control. […] The TZM-bl indicator cell line has an integrated copy of the β-galactosidase gene under control of the HIV-1 promoter. Β-Galactosidase expression, measured by use of a chlorophenol red/β-D-galactopyranoside (CPRG) assay (Roche) in cell lysates 48 h post-infection was used as a marker of HIV infection. The inhibitory curves were fitted by nonlinear regression, allowing for the calculation of the 50% effective concentration (EC50) using the Prism software. To evaluate the cell toxicity of the compounds, the metabolic XTT [2,3-bis-(2-methoxy-4-nitro-5-sulfophenyl)-2H-tetrazolium-5-carboxanilide] test (Sigma-Aldrich) was performed according to the manufacturer's instructions.

[2] = target: T2, HIV-1 IN in the presence of LEDGF/p75 (Human immunodeficiency virus type 1 group M subtype B, UniProt P04585); experiment: HTRF LEDGF dependent integrase assay; type: biochemical; details: for IC50: IN catalytic activities in the presence of LEDGF/p75
T2 construct: Full-length IN and LEDGF proteins were expressed in E. coli BL21 (DE3); made in house; host or cells: E. coli BL21 (DE3)
Method: as §1
The IN LEDGF/p75 dependent assay allowed to measure the inhibition of the 3’processing and strand transfer IN reactions in the presence of recombinant LEDGF/p75 protein, as previously described. Briefly, 50 nM IN was preincubated with increasing concentration of compounds for 1 hour at room temperature in reaction buffer containing 20 mM HEPES pH 7.5, 1 mM DTT, 1% Glycerol, 20 mM MgCl2, 0.05% Brij-35 and 0.1 mg/ml BSA. To this mixture, 9 nM DNA donor substrate (5’-[…]-Biotin-3’ annealed with 5’-[…]-Biotin3’) and 50 nM DNA acceptor substrate (5’-Cy5-[…]-3’ annealed with 5’-Cy5- […]-3’) and 50 nM LEDGF/p75 protein were added and incubated at 37°C for 90 minutes.

HIV-1 virus NL(AD8) = experiment: Antiviral activity on HIV-1 (AD8) replication in TZM-bl cells (CPRG assay); type: cell-based; details: for EC50: read-out: EC50, HIV-1 (AD8) replication
Method: as §2

[3] = target: T3, HIV-1 RT-associated RNase H activity (Human immunodeficiency virus type 1 group M subtype B, UniProt P04585); experiment: RNase H polymerase-independent cleavage assay; type: biochemical; details: for IC50: concentration required to inhibit the HIV-1 RNase H activity by 50%; for Inhibition of both HIV-1 RT-associated RNase H and RDDP functions (in words): maximum concentration tested 100 μM
T3 construct: His-tagged p66/p51 HIV-1 RT; His tag; made in house; host or cells: Escherichia coli strain M15
Method: as §1
The HIV-1 RT-associated RNase H activity was measured in 100 μL reaction volume containing 50 mM Tris–HCl, pH 7.8; 6 mM MgCl2; 1 mM dithiothreitol (DTT); 80 mM KCl; hybrid RNA/DNA (5′-[…]-3′-fluorescein, 5′-[…]-3′-Dabcyl); and 3.8 nM RT. The reaction mixture was incubated for 1 h at 37°C, the reaction was stopped by the addition of EDTA, and products were measured with a Victor 3 (Perkin) at 490/528 nm.

[4] = Cell toxicity, metabolic XTT test; type: cell-based, human; details: human; TZM-bl cells, XTT; read-out: CC50, TZM-bl cell viability
Method: as §2

[5] = test system: env-pseudotyped HIV-1 virus (REJO4541 clone 67); type: cell-based; details: TZM-bl cells, 40-fold EC50 concentration
Method: In TOA experiment it is of fundamental importance that only one replication cycle has been completed to avoid confounding effects derived from unwashed viruses after 1 hour of infection. […] 40000 TZM-bl cells/well in a 96-multiwell plate were infected with 1500 X the TCID50 per mL of the env-pseudotyped HIV-1 virus in complete medium supplemented with DEAE-dextran (Sigma–Aldrich, 30 mg/mL). Virus was incubated with cells for 1 h at 4°C, and unbound virus was subsequently removed by extensive and repeated washing with phosphate-buffered saline (PBS) to synchronize the replication. […] After 2 days, viral infection was quantified using a CPRG assay (Roche) and was then normalized to untreated control cells.

[6] = TZM-bl cells, 48 h post-infection
[7] = Human immunodeficiency virus 1, TZM-bl, 48 h

Compound | IC50 [1] | IC50 [2] | EC50 (HIV-1 virus NL(AD8); [6]) | IC50 [3] | EC50 (HIV-1 virus NL(AD8); [7]) | Inhibition of both HIV-1 RT-associated RNase H and RDDP functions (in words) [3] | further results
3-geranyl-1-(2'-methylbutanoyl)phloroglucinol [Compound 1] | 25.5 ± 8.8 µM | 7.3 ± 0.3 µM | 3.5 µM | 4.3 ± 0.4 µM | – | – | CC50 (TZM-bl cells): > 50 µM
3-geranyl-1-(2'-methylpropanoyl)phloroglucinol [Compound 2] | 12.3 ± 2.5 µM | 7.4 ± 0.4 µM | 8 µM | 4.1 ± 0.1 µM | – | – | CC50 (TZM-bl cells): > 50 µM
C=C(C)C(O)CC/C(C)=C/Cc1c(O)cc(O)c(C(=O)C(C)CC)c1O (stereo not drawn) [Compound 3, 3-(13-hydroxygeranyl)-1-(2'-methylbutanoyl)phloroglucinol] | 19.7 ± 3.5 µM | 13 ± 1 µM | – | 9.1 ± 0.5 µM | 3.5 µM | – | CC50 [4]: > 50 µM; Time of addition after which antiviral activity is lost [5]: 4–5 hour post-infection
Oc1cc(O)c(CC(O)C(O)c2ccc(O)c(O)c2)c(O)c1 [Compound 4, 1,3,5-benzentriol 2-[(2S,3R)-3-(3,4-dihydroxylphenyl)-2,3-dihydroxylpropyl]] | 92 ± 10 µM | 6.4 ± 0.7 µM | – | 93 ± 7 µM | > 40 µM | weak inhibition | –
O=C(O)c1ccc(O)c(O)c1 [Compound 5, 3,4-dihydroxybenzoic acid] | > 100 µM | > 100 µM | – | > 100 µM | > 40 µM | inactive | remaining activity at 100 µM ([1]; 100 μM compound, read-out: Percentage of control RDDP activity in the presence of compound): 85%; remaining activity at 100 µM ([2]; 100 μM compound, in the presence of LEDGF, read-out: Percentage of control IN activity in the presence of compound): 97%; HIV-1 IN inhibition (in words) ([2]; in presence of LEDGF/p75): not active; remaining activity at 100 µM ([3]; 100 μM compound, read-out: Percentage of control RNase H activity in the presence of compound): 100%
C[C@@H]1O[C@@H](Oc2c(-c3ccc(O)c(O)c3)oc3cc(O)cc(O)c3c2=O)[C@H](O)[C@H](O)[C@H]1O [Compound 6, quercitrin] | 9.7 ± 1.4 µM | 1.6 ± 0.16 µM | – | 6.3 ± 1 µM | > 40 µM | active in the low micromolar range | Fold more active on HIV-1 IN activity with respect to HIV-1 RNase H function ([2]; IN versus RNase H IC50): 4 fold; Effect on HIV-1 replication (in words) (HIV-1 virus NL(AD8); highest tested concentration, TZM-bl cells): did not exert any effect
CCOC(=O)C(=O)CC(=O)/C=C/c1cccn1Cc1ccccc1Cl [RDS 1759, reference compound] | – | – | – | 7.3 ± 0.1 µM | – | – | –
Maraviroc [reference compound] | – | – | 0.07 µM | – | – | – | –
